The text below walks through data of ChEMBL document CHEMBL1201862, “PubChem BioAssay data set” (2004).

Among the test systems are MOLT-4; RPMI-8226; OVCAR-3; OVCAR-8; ACHN; OVCAR-4; HCT-116; K562; SF-295; M14; SNB-19; HOP-62; RXF 393; SK-MEL-28; PC-3; SN12C; SK-MEL-2; HCT-15; SF-539; NCI-H460.
What all share (test): DTP human tumour cell line panel, 48 h

Molecules are shown by their SMILES.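 Protocol summary: plate cells (96-well), add compound at 5 concentrations, incubate 48 h, interpolate endpoints linearly. GI50 marks 50% less growth.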 Activity calls are given as the source filed them. Cut-off read from the data, not from the text of the source: active = GI50 up to about 1.1 µM and inactive = higher.

For the compound `CO[C@H]1O[C@@H]2OC3(C)CCC4[C@H](C)CCC([C@H]1C)[C@]42OO3` (some centres undefined), the GI50 was 36.6 µM (inactive) in the assay on MOLT-4; 12.1 µM (inactive) in the assay with RPMI-8226; 78.9 µM (inactive) with OVCAR-3; 53.6 µM (inactive) with OVCAR-8; > 100 µM (inactive) with ACHN; > 100 µM (inactive) in the assay with OVCAR-4. For the same compound, the GI50 in the assay on HCT-116 is > 100 µM (inactive); in the assay on K562 it was 26.5 µM (inactive); in the assay on SF-295 it was > 100 µM (inactive); in the assay on M14 it was > 100 µM (inactive); in the assay on SNB-19, > 100 µM (inactive); with HOP-62 it was > 100 µM (inactive). The GI50 in the assay with RXF 393 was > 100 µM (inactive); with SK-MEL-28, > 100 µM (inactive); with PC-3, 76 µM (inactive); in the assay on SN12C, > 100 µM (inactive); with SK-MEL-2, > 100 µM (inactive); with HCT-15, greater than 100 µM. Moreover, the GI50 with SF-539 and in the assay on NCI-H460 was > 100 µM (inactive) each time.
For the compound `CCOC(=O)C1=C(Nc2cccc(OC)c2)OCC1=O`, the GI50 with MOLT-4, with RPMI-8226, with OVCAR-8, in the assay with ACHN, in the assay on OVCAR-4 and in the assay on HCT-116 was > 100 µM (inactive) each time. Also, the GI50 in the assay on K562, in the assay on SF-295, in the assay with M14, with SNB-19, in the assay with HOP-62 and in the assay with RXF 393 was > 100 µM (inactive) throughout. Also, the GI50 in the assay with SK-MEL-28 is > 100 µM (inactive); with PC-3, > 100 µM (inactive); in the assay with SK-MEL-2 it was > 100 µM (inactive); in the assay on HCT-15, greater than 100 µM; in the assay on SF-539, > 100 µM (inactive); in the assay on NCI-H460 it was > 100 µM (inactive).
`COc1cc2c3c4[n+](cc2c(OC)c1OC)CCC4CCC3` (centres undefined): the GI50 in the assay with MOLT-4 is > 100 µM (inactive); in the assay with RPMI-8226, 40.4 µM (inactive); with OVCAR-3 it was 46.9 µM (inactive); in the assay with OVCAR-8, > 100 µM (inactive); with ACHN, > 100 µM (inactive); in the assay on OVCAR-4, > 100 µM (inactive). Moreover, the GI50 in the assay on HCT-116 is > 100 µM (inactive); with K562, 17.9 µM (inactive); with SF-295, > 100 µM (inactive); in the assay with M14, > 100 µM (inactive); with SNB-19, 48.9 µM (inactive); in the assay on HOP-62, > 100 µM (inactive). The GI50 with RXF 393 was > 84.3 µM (inactive); in the assay with SK-MEL-28, > 100 µM (inactive); with PC-3, > 100 µM (inactive); with SN12C, > 100 µM (inactive); in the assay with SK-MEL-2, > 95.1 µM (inactive); with HCT-15 it was greater than 100 µM. Besides, the GI50 in the assay on SF-539 and in the assay on NCI-H460 was > 100 µM (inactive) throughout.
For the compound `COc1ccccc1N/C(=C\C(=O)C(=O)NC12CC3CC(CC(C3)C1)C2)c1ccccc1`, the GI50 in the assay with MOLT-4 is > 10 µM (inactive); with RPMI-8226, > 10 µM (inactive); with OVCAR-3, 5.31 µM (inactive); in the assay with OVCAR-8, > 10 µM (inactive); in the assay on ACHN it was > 10 µM (inactive); with OVCAR-4, 9.82 µM (inactive). Further, the GI50 with K562, in the assay on SF-295, with M14, in the assay on HOP-62, with RXF 393 and in the assay on SK-MEL-28 was > 10 µM (inactive) throughout. Besides, the GI50 in the assay on PC-3 was 7.55 µM (inactive); in the assay with SN12C it was > 10 µM (inactive); in the assay on SK-MEL-2, > 10 µM (inactive); in the assay on HCT-15, greater than 10 µM; in the assay with SF-539 it was > 10 µM (inactive); with NCI-H460, > 10 µM (inactive).
In the case of `COC(=O)c1cc(=O)nc2sc3cccc(C)c3n12`, the GI50 was 28.6 µM (inactive) in the assay with MOLT-4; 22 µM (inactive) in the assay with RPMI-8226; 23 µM (inactive) in the assay with OVCAR-3; 20.9 µM (inactive) in the assay on OVCAR-8; 20.9 µM (inactive) in the assay on ACHN; > 100 µM (inactive) with OVCAR-4. Besides, the GI50 in the assay with HCT-116 is 28.8 µM (inactive); with K562, 30.3 µM (inactive); with SF-295, 67 µM (inactive); in the assay with M14, 33.1 µM (inactive); with SNB-19, 46.3 µM (inactive); in the assay on HOP-62 it was > 100 µM (inactive). Further, the GI50 with RXF 393 was 56.1 µM (inactive); in the assay with SK-MEL-28, 62.8 µM (inactive); with PC-3 it was 21 µM (inactive); with SN12C, 40.6 µM (inactive); in the assay with SK-MEL-2, 30.3 µM (inactive); in the assay with HCT-15 it was 43 µM. Also, the GI50 is 34.1 µM (inactive) in the assay with SF-539 and 68.7 µM (inactive) with NCI-H460.
As to `COC(=O)c1c(O)ccc2c1c1c(n2Cc2ccc(OC)cc2)C(=O)c2ccccc2C1`, the GI50 in the assay on MOLT-4 was 40.8 µM (inactive); with RPMI-8226 it was 8.22 µM (inactive); with OVCAR-3 it was 63.2 µM (inactive); in the assay on OVCAR-8 it was > 100 µM (inactive); in the assay with OVCAR-4 it was 30.8 µM (inactive); in the assay with HCT-116 it was 60.4 µM (inactive). Further, the GI50 with K562 was 76.7 µM (inactive); with SF-295 it was 47.4 µM (inactive); in the assay with M14 it was 38.7 µM (inactive); with SNB-19 it was 71 µM (inactive); in the assay with HOP-62, > 100 µM (inactive); with RXF 393 it was 20.3 µM (inactive). Also, the GI50 in the assay on SK-MEL-28 was > 100 µM (inactive); in the assay on PC-3, 18.5 µM (inactive); with SN12C, 27 µM (inactive); in the assay with SK-MEL-2, 62.5 µM (inactive); in the assay with HCT-15 it was 52.1 µM; in the assay with SF-539 it was 42.2 µM (inactive). Besides, the GI50 with NCI-H460 was 29.3 µM (inactive).
`Cc1c2c(c(C)n1-c1ccccc1)C(=O)N(CCN1CCN(c3cccc(C(F)(F)F)c3)CC1)C2=O`: the GI50 was 6.03 µM (inactive) with MOLT-4; 21.5 µM (inactive) in the assay on RPMI-8226; > 100 µM (inactive) with OVCAR-3; 76.4 µM (inactive) with OVCAR-8; > 100 µM (inactive) in the assay with ACHN; 7.35 µM (inactive) with OVCAR-4. Also, the GI50 is 8.36 µM (inactive) in the assay on HCT-116; 5.92 µM (inactive) in the assay on K562; 50.1 µM (inactive) in the assay on SF-295; > 100 µM (inactive) in the assay on M14; > 100 µM (inactive) with SNB-19; > 100 µM (inactive) in the assay with HOP-62. Further, the GI50 in the assay with RXF 393 was > 100 µM (inactive); in the assay with PC-3, 18.8 µM (inactive); in the assay on SN12C it was 45 µM (inactive); in the assay with SK-MEL-2, 0.719 µM (active); in the assay on HCT-15, 17.7 µM; with SF-539, 87.1 µM (inactive). Moreover, in the assay on NCI-H460, the GI50 was 45.3 µM (inactive).
On to `Cc1cc2c(cc1C)C(=O)C1(C2)Cc2c(ccc(C)c2C)C1=O` (centres undefined), for which the GI50 in the assay on MOLT-4 is > 100 µM (inactive); with RPMI-8226, > 100 µM (inactive); in the assay on OVCAR-3 it was > 100 µM (inactive); in the assay with OVCAR-8, 72.8 µM (inactive); with ACHN it was > 100 µM (inactive); in the assay with OVCAR-4 it was 75.5 µM (inactive). The GI50 with HCT-116 was > 100 µM (inactive); in the assay on K562, > 100 µM (inactive); in the assay on SF-295 it was > 100 µM (inactive); in the assay with M14, > 100 µM (inactive); in the assay on SNB-19, > 100 µM (inactive); in the assay with RXF 393 it was 53.8 µM (inactive). Further, the GI50 in the assay on SK-MEL-28 is > 100 µM (inactive); in the assay on PC-3, > 100 µM (inactive); with SN12C it was > 100 µM (inactive); with SK-MEL-2, > 100 µM (inactive); in the assay on HCT-15, greater than 100 µM; with SF-539, 36.6 µM (inactive). In addition, the GI50 in the assay with NCI-H460 was > 100 µM (inactive).
Turning to `N#Cc1ccc2oc3ccc(C#N)cc3c(=O)c2c1`, the GI50 in the assay with MOLT-4 is 23.6 µM (inactive); with RPMI-8226 it was 23.2 µM (inactive); with OVCAR-3, > 10 µM (inactive); with OVCAR-8, > 100 µM (inactive); with ACHN, > 100 µM (inactive); in the assay with OVCAR-4 it was 18 µM (inactive). In addition, the GI50 in the assay on HCT-116 was 29 µM (inactive); in the assay with K562 it was 31.3 µM (inactive); in the assay with SF-295 it was 22.9 µM (inactive); in the assay with M14 it was > 100 µM (inactive); in the assay with SNB-19, 27.9 µM (inactive); in the assay on RXF 393 it was 18.3 µM (inactive). Also, the GI50 in the assay with SK-MEL-28 was 18.5 µM (inactive); with PC-3, 24.7 µM (inactive); with SN12C, > 100 µM (inactive); in the assay on SK-MEL-2 it was 19.6 µM (inactive); in the assay on HCT-15, greater than 100 µM; in the assay on SF-539 it was 21.3 µM (inactive). For the same compound, in the assay on NCI-H460, the GI50 is 18.6 µM (inactive).
Regarding `O=C(NCC(O)COc1ccccc1)c1ccccc1O` (centres undefined), the GI50 with MOLT-4 was 14.5 µM (inactive); with RPMI-8226, > 100 µM (inactive); in the assay with OVCAR-3 it was > 100 µM (inactive); in the assay with OVCAR-8, > 100 µM (inactive); in the assay with ACHN it was > 100 µM (inactive); with OVCAR-4, > 100 µM (inactive). Further, the GI50 in the assay with HCT-116 was > 100 µM (inactive); in the assay on K562 it was > 100 µM (inactive); with SF-295, > 100 µM (inactive); in the assay on M14, > 100 µM (inactive); in the assay on SNB-19, 91 µM (inactive); in the assay on HOP-62, > 100 µM (inactive). In addition, the GI50 was > 100 µM (inactive) with RXF 393; > 100 µM (inactive) in the assay on SK-MEL-28; 66.1 µM (inactive) in the assay on PC-3; > 100 µM (inactive) with SN12C; > 100 µM (inactive) with SK-MEL-2; greater than 100 µM in the assay on HCT-15. Also, the GI50 in the assay on SF-539 was > 100 µM (inactive).
With `COc1c(C)c(C/C=C(\C)CCCC(C)CCCC(C)CCCC(C)C)c(OC)c2ccccc12` (centres undefined), the GI50 in the assay with MOLT-4, with RPMI-8226, with OVCAR-3, in the assay with OVCAR-8, in the assay with ACHN and in the assay on OVCAR-4 was > 100 µM (inactive) in each case. In addition, the GI50 with HCT-116, in the assay with K562, with SF-295, with M14, in the assay on SNB-19 and in the assay with RXF 393 was > 100 µM (inactive) throughout. Also, the GI50 in the assay with PC-3 was > 100 µM (inactive); with SN12C, > 100 µM (inactive); in the assay on SK-MEL-2 it was > 100 µM (inactive); in the assay with HCT-15 it was greater than 100 µM; in the assay with SF-539, > 100 µM (inactive); with NCI-H460, > 100 µM (inactive).
